Literature values in patent publication US20040192587A9, “Zinc formulations as a prophylactic treatment for the common cold” (priority 2002, published 2004).

Columns and labels:
common cold = conditions: tablet with about 23 mg elemental zinc dissolved in the mouth every two hours during 12 to 16 waking hours; sixty-five humans; untreated group 10.8 days
rhinovirus common colds = conditions: large prophylactic oral doses, as much as 2 grams per day

Compound	duration of colds (common cold)	frequency of acquisition of rhinovirus common colds or amount of virus shedding (rhinovirus common colds)
zinc gluconate	3.9 days	–
O=C1O[C@H]([C@@H](O)CO)C(O)=C1O [vitamin C]	–	have not altered
